Measurements reported in patent US20090232848A1, “METHODS FOR CULTIVATING LAWSONIA INTRACELLULARIS” (priority 2004, published 2009).
Like-named read-outs stand apart in the source and are kept apart here.

Columns and labels:
Assay type in all cases: cell-based, Lawsonia intracellularis
[1] = system: L. intracellularis swine isolate VP1; conditions: McCoy cells; for Monolayer infection by immunoperoxidase staining: day 5 or 6 post-infection
Procedure: L. intracellularis swine isolate VP1 (passage 17) was used to infect McCoy cells. McCoy cells were seeded in tissue culture flasks at 1.25×10^5 cells per 25 cm^2 flask, and 1.25×10^4 cells per Trac bottle (Bibby Sterilin Ltd.; Staffordshire, United Kingdom), in DMEM supplemented with 7% fetal bovine serum (FBS). The Trac bottle was used to monitor simulative infection in the flask. The flasks and Trac bottles were incubated overnight at 37° C. in a humidified incubator with 5% CO2. The following day, cells in both the flask and Trac bottle were infected with the L. intracellularis swine isolate (passage 17) in fresh DMEM with 7% FBS. After the addition of L. intracellularis, the flasks and Trac bottles were treated in three different ways. One flask and the corresponding Trac bottle were evacuated at 15 psi of Hg vacuum and purged with pure hydrogen. A second flask and the corresponding Trac bottle were neither evacuated nor purged with hydrogen, but instead received a supplement of cysteine hydrochloride (Sigma, C-7477; St. Louis, Mo.), β-NAD and phoshatidylcholine to a final concentration of 0.01%, 5 mM and 100 ng/ml, respectively, during the first two passages, and only cysteine hydrochlride (0.02% final concentration) during the later passages. The third flask and the corresponding Trac bottle were not evacuated or purged with hydrogen, nor received any supplements. All flasks and Trac bottles were incubated at 37° C. in an incubator containing 8.0 % O2 and 8.8% CO2 and 83.2% N2. On day 2 and 5 post-infection, 50% of the media from all flasks and Trac bottles was replaced with fresh DMEM with 5% FBS with or without cysteine hydrochloride, β-NAD and phoshatidylcholine.
On day 5 or 6 post-infection, the monolayers in the tissue culture flasks were monitored by immunoperoxidase staining of the corresponding Trac bottle cover slip. Briefly, the cover slip from the Trac bottle was removed and washed gently with Phosphate Buffered Saline (PBS), and bound to a microscope slide using a permanent glue. The cover slip then was fixed in acetone for 30 sec at room temperature. Rabbit anti-L. intracellularis polyclonal antibody, diluted 1:400 in PBS, was added to cover the entire cover slip, which was then incubated in a humidified environment at 37° C. for 30 min. The cover slip was washed gently with PBS and a 1:20 dilution of peroxidase-conjugated goat anti-rabbit IgG (H+L; Kirkegaard & Perry Laboratories, Inc.; Gaithersburg, Md.) was added to the cover slip and incubated for 30 min at 37° C. Peroxidase substrate solution was prepared by dissolving 10 mg of 3,3′-Diaminobenzidine (DAB; Sigma-Aldrich; St. Louis, Mo.) in 20 ml of PBS. After filtration through Whatman 113V filter paper (Whatman International Ltd.; Kent, United Kingdom), 40 μl of 30% H2O2 was added to the dissolved substrate. The final substrate solution was added to the cover slip and incubated at room temperature for 5 min. After rinsing with tap water, the cover slip was counterstained for 30 sec using Modified Harris Hematoxylin Solution (Sigma-Aldrich). The stained slide then was rinsed with tap water and observed under a microscope. Infection of the McCoy cells was also assessed by microscopic viewing of the bacteria in the media within the flask.
The infected McCoy cells in the flask were lysed using a 0.1% potassium chloride (KCl) solution on day 6 or 7 post-infection. The lysed material was used to re-infect fresh McCoy cell monolayers in flasks and Trac bottles. Briefly, after removing the media from the flask, a 0.1% KCl solution was added (5 ml per 25 cm^2) and incubated at 37° C. for 5-10 min. The KCl solution was removed from the flask, and 2 ml of sucrose potassium glutamate (SPG; 0.218M sucrose, 0.0038M KH2PO4, 0.0072M K2H PO4, and 0.0049M potassium glutamate) with 5% FBS was added. A cell scraper was then used to remove the cells from the flask. They were then lysed by forcing them through a syringe fitted with a 18 ga needle. […]

[2] = system: L. intracellularis isolate VP1; conditions: cysteine HCl 0.02%; for Bacteria in the Supernatant / Bacteria in the Supernatant: motility / Monolayer infection by staining: McCoy cells; for Monolayer infection by staining: day 6 or 7 post-infection; for Flagella in lysed material by fluorescent antibody (FITC) staining: hydrochloride
Procedure: In a separate set of experiments, L. intracellularis isolate VP1 (passage 23) was used to infect McCoy cell monolayers. The cells were then placed in a microaerophilic environment for 15 days. […] Flasks were re-fed with fresh media. […] Monolayer cells from the flask were lysed using water. Briefly, media from the flask was removed, and approximately 16 ml of sterile de-ionized water was added to the flask, followed by incubation at 37° C. for 10 min. […] The flask was then gently tapped against the palm of the hand, and a drop of the lysed material was observed under a microscope. […] A 4.25% NaCl solution was immediately added to bring the media to near normal physiological osmolarity.
The lysed material was centrifuged at 3200×g for 15 minutes. The resultant pellet was re-suspended in 41 ml of DMEM with 7% FBS, and was used to infect fresh McCoy cells. 35 ml of this lysed L. intracellularis infective material was added to one 175 cm^2 flask seeded with McCoy cells, and 0.5 ml to one seeded Trac bottle. Both the flask and the Trac bottle were evacuated with a vacuum at 15 psi of Hg, and then purged with pure hydrogen. 5 ml and 0.5 ml of the material were also used to infect McCoy cells seeded in a 25 cm^2 flask and a Trac bottle, respectively. Following evacuation with 15 psi of vacuum and a nitrogen flush, a 5× stock solution of cysteine HCl was added to the 25 cm^2 flask and the corresponding Trac bottle to a final concentration of 0.02%. All flasks and Trac bottles were incubated at 37° C. in an incubator containing 8.0% oxygen, 8.8% carbon dioxide and 83.2% nitrogen. Re-feeding was carried out as described above; the flask and Trac bottle which received cysteine HCl were also refed to the same final concentration (0.02%).
The infection was monitored on day 6 or 7 post-infection by immunoperoxidase staining of the corresponding cover slips as described above. Infection was also monitored by flourescent antibody staining. Briefly, cell lysate was collected on a Cytospin microscopic slide using a Cytofunnel sample chamber (Shandon Inc.; Pittsburg, Pa.) and centrifugation for 10 min at 1500 rpm. The sample was air dried and fixed in acetone for 30 sec. The smear was then covered with a 1:400 dilution of rabbit anti-L. intracellularis polyclonal serum and incubated at 37° C. for 30 min. The slide was washed gently with PBS, and a 1:20 dilution of fluorescein-labeled Goat anti-rabbit IgG (H+L; Kirkegaard & Perry Labs) was added to the smear, and the slide was incubated at 37° C. for 30 min. It was then observed under a fluorescent microscope.

[3] = system: L. intracellularis hamster isolate STR; conditions: McCoy cells; day 5 post-infection; cysteine hydrochloride 0.02%
Procedure: The cells were incubated overnight at 37° C. in 5% CO2, and were infected the next day with ˜5×10^5 bacteria per 25 cm^2flask. The infected flasks and the 48-well plates were evacuated at 15 psi of Hg vacuum and purged with hydrogen. A second set of flasks and corresponding Trac bottles were evacuated and purged with pure nitrogen, and cysteine hydrochloride was added to a final concentration of 0.02%. The infected flasks and plates were incubated in a bi-gas incubator at 8.0% CO2, 8.8% O2 and 83.2% N2. The flasks were re-fed with 50% volume of media on day 2 and day 5 post-infection, using DMEM with 5% FBS. A determination of the degree of infection was made on day 5 using immunoperoxidase staining. Lysis and re-infection were carried out based on the extent of infection as monitored by immunostaining of 48-well plate infections (routinely on day 7 post-infection). The media supernatant was collected from the flasks and centrifuged at 3500 g for 30 minutes. The supernatant was discarded and the pellet resuspended in SPG with 5% FBS. The monolayers were washed with PBS, followed by the addition of water and incubation at 37° C. for 15 min, at which time cells began detaching from the flask. The cells were then lysed by passaging 4 to 5 times through a syringe fitted with an 18 ga needle. The lysate was centrifuged at 350 g for 5 min to pellet the cell nuclei. […]

[4] = system: L. intracellularis (STR isolate); conditions: after 10 passages; McCoy cells; cysteine hydrochloride 0.02%, no hydrogen purge
Procedure: The bacteria were passaged by cell lysis. Supernatants and cell lysates were prepared from both flasks, as described earlier, and were used to infect fresh monolayers of McCoy cells seeded into 25 cm^2 or 75 cm^2 flasks at split ratios of 1:1 or 1:2, depending on the extent of infection as determined by immunostaining of the 48-well plate monolayers.
The 48-well plates infected with or without cysteine hydrochloride were fixed with 80% acetone on day 5 post-infection, and stained using the immunoperoxidase and immunofluorescence methods as described previously. The percent of McCoy cells infected using hydrogen gassing versus cysteine HCl was evaluated after each bacterial passage.

[5] = system: L. intracellularis swine isolate PHE/MN-001; conditions: p49, after 9 passages, McCoy cells, cysteine hydrochloride 0.02%
Procedure: Two 75 cm^2 flasks were seeded in a similar manner as described for the hamster STR isolate, starting with 6×10^5 McCoy cells in DMEM with 7% FBS, and incubated overnight at 37° C. in 5% CO2. […] The following day, the flasks were infected using the supernatant and cell lysate from L. intracellularis (PHE/MN-001 isolate)-infected McCoy cells at passage 40. One flask was evacuated, supplemented with 0.02% cysteine hydrochloride, purged with hydrogen, and placed in the incubator. The second flask was supplemented with 0.02% cysteine hydrochloride and placed in the incubator without first purging using hydrogen. The two 48-well plates were infected with L. intracellularis in parallel with the two flasks, and once again served as controls for monitoring the infection and for immunostaining. The flasks and 48-well plates were incubated in the incubator at 8.0% CO2, 8.8% O2 and 83.2% N2. The flasks were re-fed with 50% volume of media on day 2 and day 5 post-infection using DMEM with 5% FBS.
The bacteria were passaged by cell lysis, as described in earlier. […] The percent of McCoy cells infected with cysteine hydrochloride and hydrogen gassing, as compared with cysteine HCl alone, was evaluated after each bacterial passage.

[6] = passage P18, Treatment 2 = cysteine HCl 0.01% + β-NAD 5 mM + phosphatidylcholine 100 ng/ml
[7] = passage P18, Treatment 2 = cysteine HCl 0.01% + β-NAD + phosphatidylcholine
[8] = passage P19, Treatment 2 = cysteine HCl 0.01% + β-NAD + phosphatidylcholine

| Structure (SMILES) | Bacteria in the Supernatant [1, 6] | Monolayer infection by immunoperoxidase staining [1, 7] | Monolayer infection by immunoperoxidase staining [1, 8] | Monolayer infection by immunoperoxidase staining ([1]; passage P20, cysteine HCl 0.02% only) | Bacteria in the Supernatant ([1]; passage P21, cysteine HCl 0.02% only) | Bacteria in the Supernatant ([2]; passage P25) | Bacteria in the Supernatant: motility ([2]; passage P25) | Monolayer infection by staining ([2]; passage P26) | L. intracellularis infection of McCoy cells compared to infection using hydrogen gassing [2] | Viability of L. intracellularis ([2]; inactive culture after 15 days in microaerophilic environment) | Flagella in lysed material by fluorescent antibody (FITC) staining ([2]; passage P25) | Flagella in lysed material by fluorescent antibody (FITC) staining ([2]; passage P25, listed as cysteine chloride) | Infection by immunoperoxidase staining of cover slips [3] | Culture expansion from one 25 cm^2 flask (increase) [4] [fold] | Bacterial Counts (per ml supernatant) ([5]; Split Ratio 1:2) | Bacterial Counts (per ml supernatant) ([5]; Split Ratio 1:4) | Bacteria in the Supernatant ([1]; passage P20) | Monolayer infection by staining ([2]; passage P25) |
| --- | --- | --- | --- | --- | --- | --- | --- | --- | --- | --- | --- | --- | --- | --- | --- | --- | --- | --- |
| Cl.N[C@@H](CS)C(=O)O [cysteine hydrochloride] | Slightly positive | Little or no infection | 20% | 30-40% (larger foci of | Highly positive | Slightly positive, | highly motile | 50-60% infection | enhanced | viability could be restored | elevated flagellar expression | showed large numbers of flagella. | about 20% | 12 | 8.5 × 10^7 per ml supernatant | 5.8 × 10^7 per ml supernatant |  |  |
| [HH] [hydrogen, reference compound] | Positive | 60-70% | ≧80% |  |  | Slightly positive, | Normal motilty |  |  |  |  |  | about 20% | 4 |  |  | Highly positive | Lesser infection (smaller and |
